Measurements from PMC7557582, “Broad-Spectrum Antimicrobial Activity and Improved Stability of a D-Amino Acid Enantiomer of DMPC-10A, the Designed Derivative of Dermaseptin Truncates” (Antibiotics, 2020).

Assays:
[1] = tested on: K. pneumoniae (ATCC BAA 2342); type: cell-based, Klebsiella pneumoniae; conditions: K. pneumoniae (ATCC BAA 2342); broth-dilution, MHB pH 7.4, 37 °C; positive control
Method: (§1) Gram-positive bacteria Staphylococcus aureus (NCTC 10788) and Enterococcus faecalis (NCTC 12697) and Gram-negative bacteria Escherichia coli (NCTC 10418), Pseudomonas aeruginosa (ATCC 27853), and Klebsiella pneumoniae (ATCC 43816) were tested. […] All the bacterial strains were inoculated in Mueller Hinton broth (MHB), pH 7.4 (Oxiod, Basingstoke, UK) at 37 °C. Then, the log-phase bacteria were mixed with the peptide at the concentrations from 512 to 1 µM in two-fold dilution, in a 96 well-plate. The wells contained sterilized MHB and bacteria cultures were employed as a blank and growth control, respectively.

E. coli (NCTC 10418) = type: cell-based, Escherichia coli; conditions: E. coli (NCTC 10418); broth-dilution, MHB pH 7.4, 37 °C; positive control
Method: as §1

S. aureus (NCTC 10788) = type: cell-based, Staphylococcus aureus; conditions: S. aureus (NCTC 10788); broth-dilution, MHB pH 7.4, 37 °C; positive control
Method: as §1

[2] = tested on: P. aeruginosa (ATCC 27853); type: cell-based, Pseudomonas aeruginosa; conditions: P. aeruginosa (ATCC 27853); broth-dilution, MHB pH 7.4, 37 °C; positive control
Method: as §1

MRSA (NCTC 12493) = type: cell-based, methicillin-resistant S. aureus; conditions: MRSA (NCTC 12493); broth-dilution, MHB pH 7.4, 37 °C; positive control
Method: as §1

[3] = tested on: K. pneumoniae (ATCC BAA 1705); type: cell-based, Klebsiella pneumoniae; conditions: K. pneumoniae (ATCC BAA 1705); broth-dilution, MHB pH 7.4, 37 °C; positive control
Method: as §1

E. faecalis (NCTC 12697) = type: cell-based, Enterococcus faecalis; conditions: E. faecalis (NCTC 12697); broth-dilution, MHB pH 7.4, 37 °C; positive control
Method: as §1

[4] = tested on: K. pneumoniae (ATCC 43816); type: cell-based, Klebsiella pneumoniae; conditions: K. pneumoniae (ATCC 43816); broth-dilution, MHB pH 7.4, 37 °C; positive control
Method: as §1

Row | MIC of antibiotic [1] | MIC of antibiotic (E. coli (NCTC 10418)) | MIC of antibiotic [2] | MIC of antibiotic [3] | MIC of antibiotic [4] | SMILES | MIC of antibiotic (S. aureus (NCTC 10788)) | MIC of antibiotic (MRSA (NCTC 12493)) | MIC of antibiotic (E. faecalis (NCTC 12697))
1 | >32/>100.21 µg/mL | 1/3.13 µg/mL | 2/6.26 µg/mL | >32/>100.21 µg/mL | 2/6.26 µg/mL | CCn1cc(C(=O)O)c(=O)c2cc(F)c(N3CCNCC3)cc21 [Norfloxacin, reference compound] | 2/6.26 µg/mL | 2/6.26 µg/mL | 4/12.53 µg/mL
2 | – | – | – | – | – | CN[C@H](CC(C)C)C(=O)N[C@H]1C(=O)N[C@@H](CC(N)=O)C(=O)N[C@H]2C(=O)N[C@H]3C(=O)N[C@H](C(=O)N[C@H](C(=O)O)c4cc(O)cc(O)c4-c4cc3ccc4O)[C@H](O)c3ccc(c(Cl)c3)Oc3cc2cc(c3O[C@@H]2O[C@H](CO)[C@@H](O)[C@H](O)[C@H]2O[C@H]2C[C@](C)(N)[C@H](O)[C@H](C)O2)Oc2ccc(cc2Cl)[C@H]1O [Vancomycin, reference compound] | 0.125/0.08 µg/mL | 0.125/0.08 µg/mL | 1/0.69 µg/mL
